Several values for one entry are separate records, joined by “and”; a condition that tells them apart may be missing. Equal entries are not always repeated.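 How tested: cells in 96-well plates exposed to compound for 48 hours at five concentrations. GI50: concentration for 50% inhibition of growth.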 Activity calls are given as the source filed them. Rule as the data show it: active = GI50 up to about 1.1 µM and inactive = higher. Peptide text beside a SMILES is read from it. * marks the point of attachment. Boc = CC(C)(C)OC(=O)*; OBn = c1ccc(CO*)cc1; Bn = c1ccc(C*)cc1
How the values were obtained:
Assay in all cases: inhibition of tumour cell growth, NCI panel, 48 h
[1] = tested on: KM12
[2] = tested on: LOX IMVI
[3] = tested on: DU-145
[4] = tested on: A498
[5] = tested on: T47D
[6] = tested on: MDA-N
[7] = tested on: NCI-H226
[8] = tested on: SK-OV-3
[9] = tested on: NCI-H460
[10] = tested on: MDA-MB-435
[11] = tested on: EKVX
[12] = tested on: SNB-75
[13] = tested on: ACHN
[14] = tested on: BT-549
[15] = tested on: SF-268
[16] = tested on: SF-295
[17] = tested on: NCI-H522
[18] = tested on: A549
[19] = tested on: HOP-92

Measured: GI50

CC1CCCc2c(-c3ccc(Cl)cc3)nc(N)c(C#N)c21 (configuration not stated)
inactive: [1] 20.2 µM | [2] 24.2 µM | [3] 39 µM | [4] 28.4 µM | [5] 2.09 µM | [6] 24 µM | [7] 18.4 µM | [8] 23.9 µM | [9] 33.1 µM | [10] 30.1 µM | [11] 18.5 µM | [12] 11.7 µM | [13] 38.5 µM | [14] 20.2 µM | [15] 69.3 µM

Cc1nc2ccc(Cl)cc2c(Cl)c1CCCl
inactive: [1] 30.8 µM | [2] 43.6 µM | [3] 43.7 µM | [4] 83 µM | [6] 8.15 µM | [16] 48.2 µM | [7] 43.6 µM | [8] > 100 µM | [17] 39.3 µM | [9] 43.4 µM | [10] 8.36 µM | [11] 51.3 µM | [18] 40.9 µM | [19] 33.5 µM | [12] 29.4 µM | [13] > 100 µM | [15] > 100 µM

CC1(C)N=c2c(ncn2-c2ccccc2)=C(C(N)=O)N1
inactive: [1] > 100 µM | [2] > 100 µM | [3] > 100 µM | [4] > 100 µM | [5] > 100 µM | [6] > 100 µM | [16] > 100 µM | [7] > 100 µM | [8] > 100 µM | [17] > 100 µM | [9] > 100 µM | [10] > 100 µM | [11] > 100 µM | [18] > 100 µM | [12] > 100 µM | [13] > 100 µM | [15] > 100 µM

Cc1ccc(S(=O)(=O)NC(=O)Nc2cc(Cl)c(S(N)(=O)=O)cc2S(N)(=O)=O)cc1
inactive: [1] > 100 µM | [2] > 100 µM | [3] > 100 µM | [6] > 100 µM | [16] > 100 µM | [7] > 100 µM | [8] > 100 µM | [17] > 100 µM | [10] > 100 µM | [11] > 100 µM | [18] > 100 µM | [19] > 100 µM | [12] > 100 µM | [14] > 100 µM | [15] > 100 µM

O=C1c2ccccc2C(=O)c2sc(Nc3cc(Cl)ccc3Cl)nc21
inactive: [1] 12.2 µM | [2] 2.28 µM | [3] 8.57 µM | [4] 21 µM | [5] 3.99 µM | [6] 1.82 µM | [16] 4.03 µM | [7] 17.6 µM | [8] 16 µM | [17] 2.95 µM | [9] 6.68 µM | [10] 2.01 µM | [11] 12.9 µM | [18] 16.4 µM | [19] 15.1 µM | [12] 15.1 µM | [13] 5.3 µM | [15] 4.09 µM

OC1(c2ccc(Cl)cc2)C(N2CCCC2)c2ccccc2C2=NCCN21 (configuration not stated)
inactive: [1] 20.1 µM | [2] 18.1 µM | [3] 32.4 µM | [4] 21.2 µM | [5] 17.7 µM | [6] 17.8 µM | [16] 13.6 µM | [8] 20.9 µM | [9] 24.2 µM | [10] 25.6 µM | [11] 26 µM | [18] 39.9 µM | [19] 12.6 µM | [13] 30.3 µM | [14] 27 µM | [15] 47.5 µM

CC1OC(OC2C(OC(=O)[C@]34CCC(C)(C)C[C@H]3C3=CC[C@@H]5[C@@]6(C)CC[C@H](OC7OC(C(=O)O)C(O)C(O)C7O)C(C)(C)[C@@H]6CC[C@@]5(C)[C@]3(C)CC4)OCC(O)C2O)C(O)C(O)C1OC1OCC(O)C(O)C1O (some centres not stated)
inactive: [2] 66.8 µM | [4] 17.8 µM and 18.6 µM | [5] 34.8 µM and 56.9 µM | [6] 17.9 µM and 18.2 µM | [7] 43.6 µM and 43.9 µM | [8] > 100 µM and 82.8 µM | [17] 45.1 µM and 45.5 µM | [9] > 100 µM | [10] 18.3 µM and 18.9 µM | [11] 22.3 µM and 30.1 µM | [18] 35.2 µM and 30.6 µM | [19] 30.6 µM and 20.5 µM | [15] > 100 µM and 53.2 µM

CC(C)CC(NC(=O)C(CCC(=O)OCc1ccccc1)NC(=O)OC(C)(C)C)C(=O)NC(COCc1ccccc1)C(=O)NC(Cc1ccccc1)C(=O)O (configuration not stated) (Boc-E(OBn)LS(Bn)F-OH; configuration not given here)
inactive: [1] > 100 µM | [4] > 100 µM | [6] > 100 µM | [7] > 100 µM | [9] > 100 µM | [11] > 100 µM | [18] > 100 µM | [19] > 100 µM | [12] 96.8 µM | [13] > 100 µM | [14] > 100 µM
